Source: patent US10160719B2, “Pharmaceutical salts” (GRUNENTHAL GMBH, priority 2001, dated 2018)
Where a name gives a salt, the structure may show the parent alone.

Assay: water solubility determination at 20° C. in ion-free water
Conditions: for solubility at 10 min: water
Procedure: In a clear colorless vessel made of transparent material, such as, for example, glass or plastic, 1 ml of ion-free water or a fraction (amount A in ml) thereof is introduced at a temperature of 20° C.
If the amount of salt B added (in mg) completely dissolved, further amounts of the respective salt were slowly added. Each further addition was recorded and the solution behavior observed. As soon as the first turbidity due to undissolved salt was found by observation against a suitable background, stirring was continued for a further 10 minutes. If undissolved constituents subsequently remained, the sum C (in mg) of the amount of substance employed was determined. If a clear solution resulted again on stirring, further small amounts of the respective salt were added and the mixture was in each case stirred again for 10 minutes until a first turbidity remained on account of undissolved salts. The excess amount of undissolved substance was then brought into solution with stirring by addition of small amounts of water. After a clear solution had been obtained, the sum D (in ml) of the amount of water employed was determined. The solubility of the respective salt per 1 ml of water was then calculated according to the following formula: […]
If undissolved salt still remained then, the undissolved portion was brought into solution by addition of small amounts of water with stirring. After obtainment of a clear solution, the sum E (in ml) of the amounts of water employed was determined. The solubility of the respective salt per 1 ml of water was then calculated according to the following formula: […]

[1] = Solubility of the active compound saccharinate in mg/ml of water, saccharinate salt, ion-free water, 20° C.
[2] = Solubility of the active compound salt in mg/ml of water, conventional salt of the active compound (salt indicated in brackets), ion-free water, 20° C.
[3] = saccharinate salt, ion-free water, 20° C.

Compound | solubility at 10 min [1] [mg/mL] | solubility at 10 min [2] [mg/mL] | other results
COc1cccc([C@@]2(O)C[C@H](O)CC[C@@H]2CN(C)C)c1 (racemic) [(1RS,3RS,6RS)-6-dimethylaminomethyl-1-(3-methoxy-phenyl)cyclohexane-1,3-diol] | ≥ 71 | ≥ 500 | 
COc1cccc([C@@]2(O)CC[C@H](OCc3ccc(F)cc3)C[C@@H]2CN(C)C)c1 [(+)-(1R,2R,4S)-2-dimethylaminomethyl-4-(4-fluorobenzyl-oxy)-1-(3-methoxy-phenyl)cyclohexanol] |  |  | solubility at 10 min (ion-free water, Solubility of the active compound saccharinate in mg/ml of water, saccharinate salt, 20° C.): ≥ 10 mg/mL; solubility at 10 min (ion-free water, Solubility of the active compound salt in mg/ml of water, conventional salt of the active compound (salt indicated in brackets), 20° C.): ≥ 33 mg/mL
CC[C@H](c1cccc(O)c1)[C@H](C)CN(C)C.Cl [(+)-(1S,2S)-3-(3-dimethylamino-1-ethyl-2-methylpropyl)phenol hydrochloride] |  | ≥ 650 | 
CC[C@H](c1cccc(O)c1)[C@H](C)CN(C)C.O=C1NS(=O)(=O)c2ccccc21 [(+)-(1S,2S)-3-(3-dimethylamino-1-ethyl-2-methylpropyl)phenol saccharinate] |  |  | Solubility of the active compound saccharinate in mg/ml of water [3]: ≥ 55 mg/ml of water
CC[C@@H](c1cccc(O)c1)[C@@H](C)CN(C)C [(−)-(1R,2R)-3-(3-dimethylamino-1-ethyl-2-methylpropyl)phenol] | ≥ 31 | ≥ 261 | 
CC[C@@](F)(c1cccc(O)c1)[C@@H](C)CN(C)C [(−)-(1S,2S)-3-(3-dimethylamino-1-ethyl-1-fluoro-2-methyl-propyl)phenol] | ≥ 130 | ≥ 568 | 
CC[C@@](O)(c1cccc(OC)c1)[C@@H](C)CN(C)C [(−)-(2S,3S)-1-dimethylamino-3-(3-methoxyphenyl)-2-methylpentan-3-ol] | ≥ 90 | ≥ 2000 | 
COc1cc(N)cn[n+]1-c1ccccc1 [Amezinium metilsulfate, Amezinium] |  |  | solubility at 10 min (Solubility of the active compound salt in mg/ml of water): ≥ 25 mg/mL
COc1cc(N)cn[n+]1-c1ccccc1 [Amezinium saccharinate, Amezinium] |  |  | solubility at 10 min (Solubility of the active compound saccharinate in mg/ml of water): ≥ 8 mg/mL
COc1ccc2c3c1O[C@H]1[C@@H](O)C=C[C@H]4[C@@H](C2)N(C)CC[C@@]341 [Codeine phosphate hemihydrate, Codeine] |  | ≥ 250 | 
COc1ccc2c3c1O[C@H]1[C@@H](O)C=C[C@H]4[C@@H](C2)N(C)CC[C@@]341 [Codeine saccharinate, Codeine] | ≥ 200 |  | 
CNC[C@H](O)c1cccc(O)c1 [Phenylephrine hydrochloride, Phenylephrine] |  | ≥ 1250 | 
CNC[C@H](O)c1cccc(O)c1 [Phenylephrine saccharinate, Phenylephrine] | ≥ 380 |  | 
Benzalkonium [Benzalkonium hydrochloride] |  |  | Solubility of the active compound salt in mg/ml of water (conventional salt of the active compound (salt indicated in brackets), ion-free water, 20° C.): ≥ 500 mg/ml of water
Benzalkonium [Benzalkonium saccharinate] |  |  | Solubility of the active compound saccharinate in mg/ml of water [3]: <2 mg/ml of water
